Assay results reported in patent US20240415804A1, “METHOD OF TREATING PANCREATIC CANCER” (University of South Florida, priority 2022, published 2024).

Columns and labels:
[1] = test system: MDSC and macrophage subsets in the BM; experiment: Flow cytometry of MDSC and macrophage subsets in the BM of KC-HPC mice; type: in vivo, mouse; settings: API 25 mg/kg IP
From the text: All female C57BL/6 mice (6-8 weeks of age) described in this study were purchased from Envigo (Indianapolis, IN, USA) and were acclimatize for one week in a pathogen-free animal facility (University of South Florida (USF) vivarium) before injections with PC cells. To generate heterotopic pancreatic cancer (HPC) models, mice were subcutaneously injected with 1.5×10^5 murine Panc02 (HPC mice) or 5×10^6 murine UN-KC-6141 cells (KC-HPC mice), in sterile 1× phosphate buffer saline (PBS), in the lower ventral abdomen, while control (CTRL) mice received sterile 1×PBS. Once tumors where palpable, API (25 mg/kg, 100 μL volume) treatments (HPC-API and KC-HPC-API), via intraperitoneal (IP) injections, were started while CTRL, HPC and KC-HPC mice received sterile PBS (vehicle) three times per week until the end of the study^12, 55. The HPC models were euthanized 21-28 days post-injection, while the KC-HPC models were euthanized 16-17 days post-injection. The femur and tibia were cut at the pelvic-hip joint and muscle was removed. The femurs and tibias were cut at the ends and flushed with a 30-gauge needle and 10 cc syringe filled with completed RPMI media until bone was white onto a petri dish. Pelleted bone marrow (BM) cells were treated with Red Blood Cell (RBC) lysis buffer (eBioscience, Waltham, MA, USA), according to the manufacturer's instructions, and then filtered through a […] nylon mesh cell strainer in 1×PBS. All pancreatic tumors were manually cut into ˜1-2 mm^3 fragments with a sterile razor blade and then enzymatically digested with Collagenase, type IV (Sigma-Aldrich), DNase, type IV (Sigma-Aldrich) and Hyaluronidase, Type V (Sigma-Aldrich) in Hank's Balanced Salt Solution for 1 h, spun down and washed as described in previous studies^61. Digested pancreatic tumor samples were treated with RBC lysis buffer and then filtered through a […] nylon mesh cell strainer in 1×PBS. Bone marrow and digested pancreatic tumor single cell suspensions were counted with a hemocytometer and then resuspended in 3% FBS/PBS. BM and digested pancreatic tumor cells (1×10^6) were Fc Blocked (anti-mouse CD16/CD32) and then surface stained for 30 min on ice protected from light with fluorescent anti-mouse antibodies including, CD11b-APC, Ly6C-PE/Cy7, Ly6G-PerCP, F4/80-BV650, MHC—II-BV605, CD206-FITC and CD40-PE/Cy5 along with isotype control antibodies (Biolegend, San Diego, CA, USA) to detect MDSC and macrophage subsets. Digested pancreatic tumor cells (1×10^6) were also Fc Blocked and then surface stained with fluorescent anti-mouse antibodies including CD3-FITC, CD8-PercP/Cy5.5, CD4-APC/Cy7, and CD40L-APC along with isotype control antibodies (Biolegend) to detect CD8^+ T cells. Subsequently, all samples were fixed with 2% paraformaldehyde for 15 min on ice protected from light. Acquisition of samples was performed using a flow cytometer BD LSRII (BD Biosciences Immunocytometry Systems). Data analysis was performed using FlowJo v10.8 software (TreeStar Inc.).

[2] = test system: CD8+ T cells and MHC-II+ cells; experiment: AKOYA-CODEX imaging of tumor sections of KC-HPC mice; type: in vivo, mouse
From the text: Next, the inventors examined the expression and infiltration of CD8^+ T cells and MHC-II^+ cells in the tumor sections of KC-HPC treated with vehicle or API and using AKOYA-CODEX which provides spatial capture of location and phenotype for multiple immune cells in the tumor. […] The inventors then observed, via 2D tSNE, increased CD8^+ T cell expression partially located within the tumor plots for the tumors of KC-HPC-API mice compared with vehicle treated KC-HPC mice (FIG. 15B). The poly-1-lysine coated coverslips containing 5-μm of Fresh Frozen (FF) tissue sections were stored at […] until use. At the staining time, FF tissue sections were baked for 30 min to 1 h at 55° C. According to Akoya Biosciences protocol, the FF tissues were dewaxed, deparaffinized in xylene then rehydrated in descending ethanol concentrations (100% twice, 90%, 70%, 50%, and 30%, respectively) and washed in ddH2O twice, each step for 5 min. Heat-induced epitope retrieval with antigen retrieval solution, pH 6, was performed using the pressure cooker at high-pressure protocol ([…]) for 20 min. After cooling at room temperature (RT) for 30 min to 1 h, the coverslips were washed in ddH2O twice for 2 min. […] The processed data were analyzed using the CODEX-MAV plugin in Image J. Then, nuclei segmentation was performed, followed by gating and clustering of the CD8+ T cells populations. […]

O=c1cc(-c2ccc(O)cc2)oc2cc(O)cc(O)c12 [API, 40,5,7-Trihydroxyflavone, 5,7-Dihydroxy-2-(4-hydroxyphenyl)-4-benzopyrone]
G-MDSC absolute cell numbers in BM ([1]; vs KC-HPC mice): significantly lowered | M1 macrophage percentages in BM ([1]; vs KC-HPC mice): significantly increased | M1 macrophages absolute cell numbers in BM ([1]; vs KC-HPC mice): no significant changes | M2 macrophage percentages in BM ([1]; vs KC-HPC mice): decreased | M2 macrophages absolute cell numbers in BM ([1]; vs KC-HPC mice): no significant changes | M-MDSC absolute cell numbers in BM ([1]; vs KC-HPC mice): significantly lowered | proportions of G-MDSCs in BM ([1]; vs vehicle treated KC-HPC mice): significantly reduced | proportions of M-MDSCs in BM ([1]; vs vehicle treated KC-HPC mice): without any significant change | MHC-II+ cells in tumor sections (2D UMAP) ([2]; API treated KC-HPC mice, non-detectable in KC-HPC mice): increase | CD8+ T cell expression in tumor sections (2D tSNE) ([2]; KC-HPC-API vs vehicle treated KC-HPC mice): increased
